Assay: xn = mol fraction of the nth substance listed
Settings: 92.3 kPa, Liquid; for viscosity: Concentric cylinders viscometry; for speed of sound: Frequency=3 MHz, Single path-length method; for mass density: Vibrating tube method

OCCOCCO [diethylene glycol] + O
Settings | mass density, 303.15 K [kg/m3] | mass density, 308.15 K [kg/m3] | speed of sound, 303.15 K [m/s] | speed of sound, 308.15 K [m/s] | viscosity, 303.15 K [mPa·s] | viscosity, 308.15 K [mPa·s]
x1 = 0.0097 | 1003.37 | 1001.63 | 1533.2 | 1542 | – | –
x1 = 0.0201 | 1010.67 | 1008.81 | 1557.2 | 1564 | – | –
x1 = 0.0297 | 1017 | 1015.02 | 1577.4 | 1582.4 | – | –
x1 = 0.0397 | 1023.28 | 1021.17 | 1596.1 | 1599.4 | – | –
x1 = 0.049 | 1028.58 | 1026.33 | – | – | 1.6 | 1.413
x1 = 0.0502 | 1029.24 | 1026.99 | 1614 | 1615.7 | – | –
x1 = 0.0591 | 1033.98 | 1031.63 | 1627.4 | 1627.8 | – | –
x1 = 0.0703 | 1039.6 | 1037.11 | 1642.7 | 1641.6 | – | –
x1 = 0.0796 | 1043.88 | 1041.29 | 1653.2 | 1650.9 | – | –
x1 = 0.0897 | 1048.13 | 1045.45 | 1663.2 | 1659.9 | – | –
x1 = 0.0992 | 1051.97 | 1049.2 | – | – | 2.605 | 2.273
x1 = 0.1004 | 1052.46 | 1049.66 | 1672.7 | 1668.3 | – | –
x1 = 0.149 | 1068.06 | 1064.94 | – | – | 3.83 | 3.297
x1 = 0.1507 | 1068.42 | 1065.27 | 1698.5 | 1690.5 | – | –
x1 = 0.1996 | 1079.15 | 1075.79 | 1705.1 | 1695.2 | – | –
x1 = 0.1998 | 1079.37 | 1076.01 | – | – | 5.27 | 4.501
x1 = 0.2467 | 1086.77 | 1083.27 | 1701.8 | 1690.9 | – | –
x1 = 0.249 | 1086.95 | 1083.44 | – | – | 6.766 | 5.753
x1 = 0.2943 | 1091.84 | 1088.25 | 1694.1 | 1682.5 | – | –
x1 = 0.2987 | 1092.38 | 1088.8 | – | – | 8.326 | 7.056
x1 = 0.3501 | 1096.45 | 1092.82 | – | – | 9.951 | 8.401
x1 = 0.3511 | 1096.61 | 1092.99 | 1681.7 | 1669.7 | – | –
x1 = 0.3995 | 1099.42 | 1095.83 | 1670.2 | 1658 | – | –
x1 = 0.4007 | 1099.43 | 1095.8 | – | – | 11.5 | 9.648
x1 = 0.4504 | 1101.7 | 1098.07 | – | – | 12.97 | 10.79
x1 = 0.4527 | 1101.88 | 1098.24 | 1657.7 | 1645.4 | – | –
x1 = 0.4973 | 1103.4 | 1099.78 | – | – | 14.26 | 11.82
x1 = 0.5008 | 1103.56 | 1099.92 | 1646.6 | 1634.3 | – | –
x1 = 0.5449 | 1104.75 | 1101.11 | 1637.3 | 1625 | – | –
x1 = 0.553 | 1105 | 1101.38 | – | – | 15.69 | 12.94
x1 = 0.5834 | 1105.61 | 1101.98 | 1629.2 | 1617 | – | –
x1 = 0.5938 | 1105.91 | 1102.29 | – | – | 16.62 | 13.67
x1 = 0.6482 | 1106.76 | 1103.13 | 1616.6 | 1604.4 | – | –
x1 = 0.6514 | 1106.89 | 1103.27 | – | – | 17.9 | 14.67
x1 = 0.6864 | 1107.34 | 1103.72 | – | – | 18.56 | 15.18
x1 = 0.6982 | 1107.42 | 1103.8 | 1608.1 | 1596 | – | –
x1 = 0.7444 | 1107.94 | 1104.33 | 1600.4 | 1588.3 | – | –
x1 = 0.7556 | 1108.01 | 1104.38 | – | – | 19.68 | 16.06
x1 = 0.7962 | 1108.41 | 1104.81 | 1592.7 | 1580.7 | – | –
x1 = 0.7999 | 1108.35 | 1104.73 | – | – | 20.32 | 16.57
x1 = 0.8401 | 1108.74 | 1105.14 | 1586.6 | 1574.5 | – | –
x1 = 0.8525 | 1108.74 | 1105.13 | – | – | 20.98 | 17.08
x1 = 0.8947 | 1109.09 | 1105.49 | 1579.5 | 1567.5 | – | –
x1 = 0.9002 | 1109.09 | 1105.5 | – | – | 21.55 | 17.53
x1 = 0.9092 | 1109.17 | 1105.58 | 1577.7 | 1565.7 | – | –
x1 = 0.919 | 1109.23 | 1105.64 | 1576.5 | 1564.5 | – | –
x1 = 0.9303 | 1109.27 | 1105.68 | 1575.3 | 1563.3 | – | –
x1 = 0.9393 | 1109.28 | 1105.69 | 1574.3 | 1562.3 | – | –
x1 = 0.9473 | 1109.36 | 1105.77 | 1573.3 | 1561.4 | – | –
x1 = 0.9554 | 1109.45 | 1105.86 | – | – | 22.07 | 17.95
x1 = 0.9566 | 1109.41 | 1105.82 | 1572.2 | 1560.2 | – | –
x1 = 0.9694 | 1109.47 | 1105.88 | 1570.8 | 1558.9 | – | –
x1 = 0.9801 | 1109.52 | 1105.93 | 1569.6 | 1557.7 | – | –
x1 = 0.9915 | 1109.56 | 1105.97 | 1568.3 | 1556.4 | – | –
x1 = 1 | 1109.6 | 1106.01 | 1567.2 | 1555.3 | 22.48 | 18.27
